Assay results from patent US10766869B2, “Triazoles for the treatment of demyelinating dieases” (Vertex Pharmaceuticals Incorporated, priority 2015, dated 2020).

System: primary rat mixed cortical cells
Test: In vitro myelination assay (MBP positive myelin strands, fold myelin pixels above background)
Format: cell-based
Details: Rattus norvegicus, relative to baseline of no added compound; for fold induction at 1 µM: 1.0 μM compound, read-out: Fold myelin pixels above background, 1.0 μM; for fold induction at 10 µM: 10.0 μM compound, read-out: Fold myelin pixels above background, 10.0 μM
From the text: In Vitro Myelination Assay
Compounds were screened for their ability to induce myelination using a primary rat mixed cortical cell culture assay, which contains neurons, oligodendrocyte precursor cells, oligodendrocytes, astrocytes and microglia. The assay quantifies myelination by measuring myelin basic protein (MBP) immunofluorescent positive myelin strands from images taken using a Cellomics Array Scan (model Arrayscan VTI HCS Reader) or a Molecular Devices Image Xpress (model IXM XL) high content imager. The myelin strands were quantitated using a custom created myelin detection software program. Test compounds were dissolved in DMSO to make a 10 mM initial stock solution. Dilutions were made in myelination medium to obtain the final solutions for the assay and were tested in primary rat mixed cortical cells at selected doses.
Primary rat mixed cortical cells were prepared from harvested cerebral cortices from postnatal day 1 (P1) rats (P1 Rat CD® IGS pups) were purchased from Charles River) in Complete Dissociation Medium, wherein the meninges were removed and the cortical tissue chopped with a razor blade into ˜1 mm^3 pieces. Tissue from 1-3 pups was collected and placed into 15 ml conical tubes in a total volume of 5 ml of Complete Dissociation Medium. Activated papain (3 ml) was added to each 15 ml conical tube and tissue was incubated at 37° C. for 30 minutes. After the 30 minute incubation, DNase (Sigma D4527; 75 μl of a 1 mg/ml stock) was added to each tube, followed by mechanical trituration using a 2 ml serological pipette and autopipettor to gently dissociate the tissue. Following trituration, larger tissue pieces were allowed to settle by gravity, and the supernatant containing dissociated cells was transferred to a 50 ml conical tube with 4 ml of trypsin inhibitor. Cells were pelleted by centrifugation, resuspended in myelination medium and filtered through a 40 μm filter. Cells were then seeded in 96-well plates (BD Biosciences, Black, PDL-coated, Cat. No. 356640) at 87,500-95,000 cells/well in a final volume of 200 μl of Myelination Medium in the presence or absence of compound and cultured for 14 days in a humidified 37° C. incubator with 5% CO2. Half the medium was removed and replaced with fresh medium containing 1× compound on days 6 and 10. Using a Biotek automatic plate washer (model Biomek® FXP Laboratory Automation Workstation), cells were fixed with 4% paraformaldehyde on day 14, washed with PBS and blocked in 5% normal goat serum (Vector Laboratories, S-1000) in 0.1% PBS-TritonX-100 (PBST) for 1 hour. Cells were stained with 1:500 anti-MBP (Covance, cat # SMI99) primary antibody in 1% normal goat serum in 0.1% PBST for 2 hours at room temperature followed by 2 washes with PBST. A final incubation in secondary antibody (1:1000, Invitrogen, Alexa-488 anti-mouse IgG2b) and 1:10,000 Hoechst dye in 1% normal goat serum in 0.1% PBST was performed for 2 hours at room temperature. Plates were washed with PBS and then scanned on a Cellomics Array Scan using a 10× objective (25 images per well) or the Image Xpress using a 10× objective (9 image per well). Images were analyzed using Vertex myelin detection software (described below) to quantify total MBP myelin pixels per well. Fold myelin pixels above background at two concentrations (1.0 μM and 10.0 μM) relative to baseline of no added compound are reported below in Table 4. Standard deviation for each compound concentration was calculated using all replicates and using a standard deviation formula commonly used in the art.
One of skill in the art would recognize that for this type of primary neuronal mixed cell assay variability between different assay runs is to be expected even though the protocol is the same for each assay run. For instance, variability may be due to small differences in cell viability, cell density, age of the animals, etc.
Vertex Myelin Detection Software: […]

SMILES	fold induction at 1 µM	fold induction at 10 µM
CCc1cc(Nc2ncn(-c3cccc(F)c3)n2)cc(N2CC(N3CCOCC3)C2)c1 [Compound 15, N-[3-ethyl-5-(3-morpholinoazetidin-1-yl)phenyl]-1-(3-fluorophenyl)-1,2,4-triazol-3-amine]	100 to 1000	10 to 100
CCc1cc(Nc2ncn(-c3ccnc(F)c3)n2)cc(N2CCN(C3COC3)CC2)c1 [Compound 16, N-[3-ethyl-5-[4-(oxetan-3-yl)piperazin-1-yl]phenyl]-1-(2-fluoro-4-pyridyl)-1,2,4-triazol-3-amine]	100 to 1000	10 to 100
CC(C)(C)c1cc(Nc2ncn(-c3cc(F)cc(F)c3)n2)cc(N2CCN(C3COC3)CC2)c1 [Compound 17, N-[3-tert-butyl-5-[4-(oxetan-3-yl)piperazin-1-yl]phenyl]-1-(3,5-difluorophenyl)-1,2,4-triazol-3-amine]	100 to 1000	≤ 1
Cc1cc(Nc2ncn(-c3ccccc3)n2)cc(C2(F)CCN(C3COC3)C2)c1 (stereo not drawn) [Compound 18, N-[3-[3-fluoro-1-(oxetan-3-yl)pyrrolidin-3-yl]-5-methyl-phenyl]-1-phenyl-1,2,4-triazol-3-amine]	1000 to 10000	1 to 10
Cc1cc(Nc2ncn(-c3cc(F)cc(F)c3)n2)cc(N2CCn3ccnc3C2)c1 [Compound 19, 1-(3,5-difluorophenyl)-N-[3-(6,8-dihydro-5H-imidazo[1,2-a]pyrazin-7-yl)-5-methyl-phenyl]-1,2,4-triazol-3-amine]	10 to 100	1 to 10
Cc1cc(Nc2ncn(-c3cnccn3)n2)cc(N2CCN(C3CC3)CC2)c1 [Compound 20, N-[3-(4-cyclopropylpiperazin-1-yl)-5-methyl-phenyl]-1-pyrazin-2-yl-1,2,4-triazol-3-amine]	10 to 100	100 to 1000
Cc1cc(Nc2ncn(-c3ccccc3)n2)cc(N2CC(C)NCC2C)c1 (stereo not drawn) [Compound 21, N-[3-(2,5-dimethylpiperazin-1-yl)-5-methyl-phenyl]-1-phenyl-1,2,4-triazol-3-amine]	10 to 100	≤ 1
COc1ccc(-n2cnc(Nc3cc(C4CC4)nc(N4CCC(C)CC4)c3)n2)cc1OC [Compound 22, 2-cyclopropyl-N-[1-(3,4-dimethoxyphenyl)-1,2,4-triazol-3-yl]-6-(4-methyl-1-piperidyl)pyridin-4-amine]	100 to 1000	100 to 1000
Cc1cc(Nc2ncn(-c3cc(F)cc(F)c3)n2)cc(C2(F)CCN(C)C2)c1 (stereo not drawn) [Compound 23, 1-(3,5-difluorophenyl)-N-[3-(3-fluoro-1-methyl-pyrrolidin-3-yl)-5-methyl-phenyl]-1,2,4-triazol-3-amine]	10 to 100	10 to 100
Cc1cc(Nc2ncn(-c3cncc(F)c3)n2)cc(N2CCN(C3COC3)CC2)c1 [Compound 24, 1-(5-fluoro-3-pyridyl)-N-[3-methyl-5-[4-(oxetan-3-yl)piperazin-1-yl]phenyl]-1,2,4-triazol-3-amine]	10 to 100	100 to 1000
Cc1cc(Nc2ncn(-c3cc(F)cc(F)c3)n2)cc(C2CCN(C3COC3)C2)c1 (stereo not drawn) [Compound 25, 1-(3,5-difluorophenyl)-N-[3-methyl-5-[1-(oxetan-3-yl)pyrrolidin-3-yl]phenyl]-1,2,4-triazol-3-amine]	1000 to 10000	1000 to 10000
FC(F)c1cc(Nc2ncn(-c3ccccc3)n2)cc(N2CCN(C3COC3)CC2)c1 [Compound 26, N-[3-(difluoromethyl)-5-[4-(oxetan-3-yl)piperazin-1-yl]phenyl]-1-phenyl-1,2,4-triazol-3-amine]	100 to 1000	≤ 1
Cc1cc(Nc2ncn(-c3cccc(F)c3)n2)cc(N2CCOCC2)c1 [Compound 27, 1-(3-fluorophenyl)-N-(3-methyl-5-morpholino-phenyl)-1,2,4-triazol-3-amine]	1000 to 10000	100 to 1000
CN1CCCN(c2cc(F)cc(Nc3ncn(-c4ccc(F)cc4F)n3)c2)CC1 [Compound 28, 1-(2,4-difluorophenyl)-N-[3-fluoro-5-(4-methyl-1,4-diazepan-1-yl)phenyl]-1,2,4-triazol-3-amine]	≤ 1	≤ 1
Cc1cc(Nc2ncn(-c3cc(F)cc(F)c3)n2)cc(N2CC(CC(C)C)N3CCC[C@@H]3C2)c1 (stereo partly drawn) [Compound 29, N-[3-[(8aR)-4-isobutyl-3,4,6,7,8,8a-hexahydro-1H-pyrrolo[1,2-a]pyrazin-2-yl]-5-methyl-phenyl]-1-(3,5-difluorophenyl)-1,2,4-triazol-3-amine]	≤ 1	≤ 1
COc1nccc(-n2cnc(Nc3cc(C)cc(N4CCN(C5COC5)CC4)c3)n2)n1 [Compound 30, 1-(2-methoxypyrimidin-4-yl)-N-[3-methyl-5-[4-(oxetan-3-yl)piperazin-1-yl]phenyl]-1,2,4-triazol-3-amine]	≤ 1	100 to 1000
CCc1cc(Nc2ncn(-c3ccc(C)cc3)n2)cc(N2CCN(C3COC3)CC2)c1 [Compound 31, N-[3-ethyl-5-[4-(oxetan-3-yl)piperazin-1-yl]phenyl]-1-(p-tolyl)-1,2,4-triazol-3-amine]	100 to 1000	100 to 1000
Cc1cc(Nc2ncn(-c3cc(F)cc(Cl)c3)n2)cc(N2CCN(C3COC3)CC2)c1 [Compound 32, 1-(3-chloro-5-fluoro-phenyl)-N-[3-methyl-5-[4-(oxetan-3-yl)piperazin-1-yl]phenyl]-1,2,4-triazol-3-amine]	1000 to 10000	100 to 1000
Cc1cc(Nc2ncn(-c3cc(F)cc(F)c3)n2)cc(N2C[C@@H]3C[C@H]2CN3C2COC2)c1 [Compound 34, 1-(3,5-difluorophenyl)-N-[3-methyl-5-[(1S,4S)-2-(oxetan-3-yl)-2,5-diazabicyclo[2.2.1]heptan-5-yl]phenyl]-1,2,4-triazol-3-amine]	100 to 1000	≤ 1
Fc1cc(F)cc(-n2cnc(Nc3cc(C4=CCOCC4)nc(C4CC4)c3)n2)c1 [Compound 35, 2-cyclopropyl-N-[1-(3,5-difluorophenyl)-1,2,4-triazol-3-yl]-6-(3,6-dihydro-2H-pyran-4-yl)pyridin-4-amine]	100 to 1000	10 to 100
Cc1cc(Nc2ncn(-c3cccc(F)c3)n2)cc(C2CN(C3COC3)C2)c1 [Compound 36, 1-(3-fluorophenyl)-N-[3-methyl-5-[1-(oxetan-3-yl)azetidin-3-yl]phenyl]-1,2,4-triazol-3-amine]	1000 to 10000	≤ 1
Cc1cc(Nc2ncn(-c3cc(F)cc(F)c3)n2)cc(N2CCN(C)CC2)c1 [Compound 37, 1-(3,5-difluorophenyl)-N-[3-methyl-5-(4-methylpiperazin-1-yl)phenyl]-1,2,4-triazol-3-amine]	100 to 1000	≤ 1
Cc1cc(Nc2ncn(-c3cc(F)cc(F)c3)n2)cc(NC2CCN(C3COC3)CC2)c1 [Compound 38, N3-[1-(3,5-difluorophenyl)-1,2,4-triazol-3-yl]-5-methyl-N1-[1-(oxetan-3-yl)-4-piperidyl]benzene-1,3-diamine]	10 to 100	10 to 100
Cc1cc(Nc2ncn(-c3ccccc3)n2)cc(C2CCNC2)c1 (stereo not drawn) [Compound 39, N-(3-methyl-5-pyrrolidin-3-yl-phenyl)-1-phenyl-1,2,4-triazol-3-amine]	1000 to 10000	≤ 1
